Experimental data reported in patent US20140107568A1, “METHOD OF DETERMINING AN INJECTED DOSE BASED ON A KNOWN ORAL DOSE” (ANTARES PHARMA, INC., priority 2012, published 2014).

From the text: An algorithm was developed to correlate a known oral dose of methotrexate to a jet injector dose. Table 1 illustrates the calculated correlation between oral doses and needle-assisted jet injector doses of methotrexate. The second column illustrates the precise subcutaneous dose calculated based on the algorithm, described in detail below. The third column represents the administrable dose, based on commercially available doses, closest in value to the precise calculated dose.
Based on the data set forth in table 1, a line equation of y=mx+b was developed to correlate an oral dose of methotrexate to an equivalent dose for use with a jet injector. In the present equation, illustrated by the graph shown in FIG. 1, the slope, m, was determined to be 0.6101 and a y-intercept, b, to be 2.9274. The correlation coefficient of the line, R^2, is 0.9594.

CN(Cc1cnc2nc(N)nc(N)c2n1)c1ccc(C(=O)N[C@@H](CCC(=O)O)C(=O)O)cc1 [methotrexate]
slope, m, of line equation y=mx+b correlating oral dose to equivalent jet injector dose: 0.6101
y-intercept, b, of line equation y=mx+b correlating oral dose to equivalent jet injector dose: 2.9274
